Results on 19 compounds are retold here after patent publication US20160122342A1, “ENHANCER OF ZESTE HOMOLOG 2 INHIBITORS” (GLAXOSMITHKLINE INTELLECTUAL PROPERTY (NO.2) LIMITED, priority 2013, published 2016).

Assay [1] concerns the target T1, EZH2 within the PRC2 complex (Homo sapiens, UniProt Q15910).
T1 construct: FLAG; made in house; host or cells: Sf9 cells
Nature of the assay: Assay Protocol 1: EZH2 methyltransferase scintillation proximity assay, mononucleosome substrate. The assay is classed as biochemical. As to conditions: Assay Protocol 1; SPA, 3H-SAM, Histone H3 of mononucleosome purified from HeLa cells; 5-member PRC2 complex; read-out: EZH2 IC50. As for the experimental part:
Compounds contained herein were evaluated for their ability to inhibit the methyltransferase activity of EZH2 within the PRC2 complex. […] Mononucleosomes were captured on SPA beads and the resulting signal is read on a ViewLux plate reader. • 1. Prepare 10 mM stock of compounds from solid in 100% DMSO. • 2. […] Dispense 100 nL of compound from the dilution plate into reaction plates (Grenier Bio-One, 384-well, Cat#784075). Prepare the following solutions: • 1. 50 mM Tris-HCl, pH 8: Per 1 L of base buffer, combine 1 M Tris-HCl, pH 8 (50 mL) and distilled water (950 mL). • 2. 1× Assay Buffer: […] SPA Bead Suspension: […] Per 10 mL of 2× Substrate Solution, combine 1× Assay Buffer (9728.55 uL), 800 ug/mL mononucleosomes (125 uL), 1 mM cold SAM (4 uL), and 7.02 uM 3H-SAM (142.45 uL; 0.55 mCi/mL) to provide a final concentration of 5 ug/mL nucleosomes, 0.2 uM cold SAM, and 0.05 uM 3H-SAM. • 6. 2.67× Quench/Bead Mixture: Per 10 mL of 2.67× Quench/Bead Mixture, combine ddH2O (9358 uL), 10 mM cold SAM (267 uL), 40 mg/mL Bead Suspension (375 uL) to provide a final concentration of 100 uM cold SAM and 0.5 mg/mL SPA beads. • 1. Dispense 100 nL/well of 100× Compound to test wells (as noted above). • 2. […] • 1. Dispense 5 uL/well of 1× Assay Buffer to column 18 (low control reactions). • 2. Dispense 5 uL/well of 2× Enzyme Solution to columns 1-17, 19-24. • 3. Spin assay plates for ˜1 minute at 500 rpm. • 4. Stack the assay plates, covering the top plate. • 5. Incubate the compound/DMSO with the enzyme for 30 minutes at room temperature. • 6. Dispense 5 uL/well of 2× Substrate Solution to columns 1-24. • 7. Spin assay plates for ˜1 minute at 500 rpm. • 8. Stack the assay plates, covering the top plate. • 9. Incubate the assay plates at room temperature for 1 hour. • 1. Dispense 5 uL/well of the 3× Quench/Bead Mixture to columns 1-24. • 2. Seal the top of each assay plate with adhesive TopSeal. • 3. Spin assay plates for ˜1 minute at 500 rpm. • 4. […] • 1. Read the assay plates on the Viewlux Plate Reader utilizing the 613 nm emission filter with a 300 s read time. Reagent addition can be done manually or with automated liquid handler. The final DMSO concentration in this assay is 1%. The positive control is in column 6; negative control is in column 18. Final starting concentration of compounds is 100 μM. Percent inhibition was calculated relative to the DMSO control for each compound concentration and the resulting values were fit using standard IC50 fitting parameters within the ABASE data fitting software package.
A general note: In a scintillation proximity assay essentially only radioactivity close to the scintillant gives light.

Assay [2] concerns the target T1, EZH2 within the PRC2 complex. Nature of the assay: Assay Protocol 2: EZH2 methyltransferase scintillation proximity assay, biotinylated histone H3 peptide substrate. The assay is classed as biochemical. Conditions: SPA, 3H-SAM, biotinylated unmethylated histone H3K27 peptide substrate, 5-member PRC2 complex. An outline of the steps:
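PRC2-complexed EZH2 was run in 50 mM Tris-HCl pH 8, 2 mM MgCl2, 4 mM DTT and 0.001% Tween-20. It was added to a 2× mix of 10 uM biotinylated H3K27 peptide, 0.15 uM 3H-SAM and 2.85 uM cold SAM with streptavidin SPA beads. After 60 min at room temperature and a cold-SAM quench, IC50 was fitted from percent inhibition versus DMSO.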

The structures appear in SMILES notation. Structures can show the parent of a compound that is named as a salt.

T1 sequence (Q15910 whole entry): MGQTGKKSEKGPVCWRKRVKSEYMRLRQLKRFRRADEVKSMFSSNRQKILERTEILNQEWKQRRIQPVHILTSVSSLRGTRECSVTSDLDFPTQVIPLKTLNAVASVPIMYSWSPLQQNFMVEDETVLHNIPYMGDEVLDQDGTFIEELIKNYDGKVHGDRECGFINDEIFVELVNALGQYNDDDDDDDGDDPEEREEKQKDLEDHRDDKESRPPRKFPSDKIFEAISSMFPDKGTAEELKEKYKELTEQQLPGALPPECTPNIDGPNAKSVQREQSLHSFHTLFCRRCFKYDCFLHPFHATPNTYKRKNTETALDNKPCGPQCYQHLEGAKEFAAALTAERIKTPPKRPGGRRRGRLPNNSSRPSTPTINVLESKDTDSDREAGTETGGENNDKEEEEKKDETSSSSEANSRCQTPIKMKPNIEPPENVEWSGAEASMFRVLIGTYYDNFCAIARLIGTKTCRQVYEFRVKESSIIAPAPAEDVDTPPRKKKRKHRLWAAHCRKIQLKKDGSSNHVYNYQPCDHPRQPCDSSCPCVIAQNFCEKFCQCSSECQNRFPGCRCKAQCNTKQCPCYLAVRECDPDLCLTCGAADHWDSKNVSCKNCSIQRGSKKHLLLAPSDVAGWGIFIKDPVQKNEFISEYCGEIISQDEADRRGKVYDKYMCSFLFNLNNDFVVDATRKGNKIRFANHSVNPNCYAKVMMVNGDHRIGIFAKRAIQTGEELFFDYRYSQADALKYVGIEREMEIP
T1 sequence (O75530 whole entry partner): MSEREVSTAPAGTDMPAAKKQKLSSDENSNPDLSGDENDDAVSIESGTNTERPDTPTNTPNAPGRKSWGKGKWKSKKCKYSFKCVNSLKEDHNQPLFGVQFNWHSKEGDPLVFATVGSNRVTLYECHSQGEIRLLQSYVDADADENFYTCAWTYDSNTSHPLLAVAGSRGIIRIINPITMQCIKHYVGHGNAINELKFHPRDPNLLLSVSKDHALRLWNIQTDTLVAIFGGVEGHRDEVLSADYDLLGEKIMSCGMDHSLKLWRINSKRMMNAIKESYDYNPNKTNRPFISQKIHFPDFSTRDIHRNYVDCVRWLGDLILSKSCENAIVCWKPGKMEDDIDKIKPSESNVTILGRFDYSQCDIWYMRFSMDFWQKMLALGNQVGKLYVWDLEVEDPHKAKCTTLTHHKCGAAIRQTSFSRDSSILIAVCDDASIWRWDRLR
T1 sequence (Q15022 whole entry partner): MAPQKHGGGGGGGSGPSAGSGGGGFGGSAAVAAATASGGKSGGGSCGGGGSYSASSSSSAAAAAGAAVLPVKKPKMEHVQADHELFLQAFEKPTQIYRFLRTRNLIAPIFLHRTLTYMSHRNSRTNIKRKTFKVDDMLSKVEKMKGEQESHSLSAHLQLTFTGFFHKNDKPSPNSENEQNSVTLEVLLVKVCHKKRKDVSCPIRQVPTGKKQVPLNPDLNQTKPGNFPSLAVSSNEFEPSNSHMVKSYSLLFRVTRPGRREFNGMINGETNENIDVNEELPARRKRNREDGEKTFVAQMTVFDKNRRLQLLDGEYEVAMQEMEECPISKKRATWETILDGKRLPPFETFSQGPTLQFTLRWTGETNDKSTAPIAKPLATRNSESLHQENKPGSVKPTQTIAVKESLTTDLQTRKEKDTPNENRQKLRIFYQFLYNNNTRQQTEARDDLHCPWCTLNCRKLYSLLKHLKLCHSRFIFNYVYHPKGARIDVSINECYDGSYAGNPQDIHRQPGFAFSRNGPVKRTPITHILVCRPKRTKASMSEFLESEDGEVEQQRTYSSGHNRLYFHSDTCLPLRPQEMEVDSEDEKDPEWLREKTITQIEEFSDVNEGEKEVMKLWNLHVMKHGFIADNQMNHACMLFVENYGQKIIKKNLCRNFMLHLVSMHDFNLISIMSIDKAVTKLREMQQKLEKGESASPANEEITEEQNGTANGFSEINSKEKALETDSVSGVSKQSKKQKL
T1 sequence (Q09028 whole entry partner): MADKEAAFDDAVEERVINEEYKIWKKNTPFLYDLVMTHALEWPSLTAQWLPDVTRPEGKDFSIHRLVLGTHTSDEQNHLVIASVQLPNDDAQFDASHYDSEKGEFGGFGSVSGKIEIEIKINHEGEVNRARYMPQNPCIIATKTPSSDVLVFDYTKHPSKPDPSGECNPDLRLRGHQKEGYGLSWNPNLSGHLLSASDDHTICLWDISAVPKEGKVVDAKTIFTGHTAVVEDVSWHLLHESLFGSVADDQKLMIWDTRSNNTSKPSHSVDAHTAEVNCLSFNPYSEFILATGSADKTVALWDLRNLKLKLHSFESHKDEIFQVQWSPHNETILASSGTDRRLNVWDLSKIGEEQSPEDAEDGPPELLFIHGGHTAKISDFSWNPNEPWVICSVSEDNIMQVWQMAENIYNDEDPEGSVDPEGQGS
T1 sequence (Q6ZN18 whole entry partner): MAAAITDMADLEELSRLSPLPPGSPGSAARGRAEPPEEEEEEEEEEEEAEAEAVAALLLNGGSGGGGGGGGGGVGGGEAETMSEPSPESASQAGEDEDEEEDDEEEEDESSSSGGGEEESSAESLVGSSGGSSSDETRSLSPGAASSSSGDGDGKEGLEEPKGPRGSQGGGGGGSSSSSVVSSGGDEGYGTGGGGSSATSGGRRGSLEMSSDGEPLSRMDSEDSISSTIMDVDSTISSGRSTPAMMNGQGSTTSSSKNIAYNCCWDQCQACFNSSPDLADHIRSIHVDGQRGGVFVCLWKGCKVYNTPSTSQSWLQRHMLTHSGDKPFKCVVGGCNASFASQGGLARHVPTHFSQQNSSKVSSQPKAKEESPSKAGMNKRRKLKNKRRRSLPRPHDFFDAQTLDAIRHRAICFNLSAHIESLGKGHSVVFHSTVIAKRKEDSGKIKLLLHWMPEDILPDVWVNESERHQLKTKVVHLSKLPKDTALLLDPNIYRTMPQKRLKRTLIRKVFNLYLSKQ

For `CCN(c1cccc2c1CC=CCOCc1cc(C)[nH]c(=O)c1CNC2=O)C1CCOCC1` (racemic) [Example 12, (E)- and (Z)-11-(ethyl(tetrahydro-2H-pyran-4-yl)amino)-3-methyl-7,10,16,17-tetrahydrobenzo[h]pyrido[4,3-c][1,6]oxaazacyclotridecine-1,15(2H,5H)-dione], the figures for the 50% inhibitory concentration (IC50) in assay [1] and in assay [2] were 126 nM and 200 nM, respectively. The corresponding values for `Cc1cc2c(c(=O)[nH]1)CNC(=O)c1cc(Cl)cc(O[C@H]3CC[C@H](N)CC3)c1C/C=C/CC2` [Example 1, (E)-10-((trans-4-aminocyclohexyl)oxy)-12-chloro-3-methyl-5,6,15,16-tetrahydrobenzo[c]pyrido[4,3-j][1]azacyclododecine-1,14(2H,9H)-dione hydrochloride] are 32 nM and 100 nM. On the same counts, the results for `Cc1cc2c(c(=O)[nH]1)CNC(=O)c1cc(Cl)cc(O[C@H]3CC[C@H](N(C)C)CC3)c1C/C=C/CC2` [Example 2, (E)-12-chloro-10-((trans-4-(dimethylamino)cyclohexyl)oxy)-3-methyl-5,6,15,16-tetrahydrobenzo[c]pyrido[4,3-j][1]azacyclododecine-1,14(2H,9H)-dione] are 25 nM and 126 nM.

Take `Cc1cc2c(c(=O)[nH]1)CNC(=O)c1cc(Cl)cc(O[C@H]3CC[C@H](N(C)C)CC3)c1CCCCC2` [Example 3, 12-chloro-10-((trans-4-(dimethylamino)cyclohexyl)oxy)-3-methyl-6,7,8,9,15,16-hexahydrobenzo[c]pyrido[4,3-j][1]azacyclododecine-1,14(2H,5H)-dione]: the results for the IC50 in assay [1] and in assay [2] were 100 nM and 158 nM, respectively. The corresponding values for `CCN(c1cccc2c1C/C=C/CCc1cc(C)[nH]c(=O)c1CNC2=O)C1CCOCC1` [Example 6, (E)-10-(ethyl(tetrahydro-2H-pyran-4-yl)amino)-3-methyl-5,6,15,16-tetrahydrobenzo[c]pyrido[4,3-j][1]azacyclododecine-1,14(2H,9H)-dione hydrochloride, 0.10 1,4-dioxane solvate] are 100 nM and 158 nM. The corresponding values for `Cc1cc2c(c(=O)[nH]1)CNC(=O)c1cc(Cl)cc(O[C@H]3CC[C@H](N(C)C)CC3)c1C/C=C/CCC2` [Example 8, (E)-13-chloro-11-((trans-4-(dimethylamino)cyclohexyl)oxy)-3-methyl-5,6,7,10,16,17-hexahydro-1H-benzo[c]pyrido[4,3-k][1]azacyclotridecine-1,15(2H)-dione] are 63 nM and 251 nM. As for `CCN(c1cccc2c1C/C=C/CCc1cc(C)[nH]c(=O)c1CN(C)C2=O)C1CCOCC1` [Example 9, (E)-10-(ethyl(tetrahydro-2H-pyran-4-yl)amino)-3,15-dimethyl-5,6,15,16-tetrahydrobenzo[c]pyrido[4,3-j][1]azacyclododecine-1,14(2H,9H)-dione], the IC50 in assay [1] amounted to 79 nM; in assay [2], 126 nM. With `CCN(c1cccc2c1C/C=C/CCCCc1cc(C)[nH]c(=O)c1CNC2=O)C1CCOCC1` [Example 14, (E)-12-(ethyl(tetrahydro-2H-pyran-4-yl)amino)-3-methyl-5,6,7,8,17,18-hexahydrobenzo[c]pyrido[4,3-l][1]azacyclotetradecine-1,16(2H,11H)-dione hydrochloride], the IC50 in assay [1] worked out at 50 nM; in assay [2], 158 nM. As for `CCN(c1cc(Cl)cc2c1C/C=C\CCc1cc(C)[nH]c(=O)c1CNC2=O)C1CCOCC1` [Example 16, (Z)-12-chloro-10-(ethyl(tetrahydro-2H-pyran-4-yl)amino)-3-methyl-5,6,15,16-tetrahydrobenzo[c]pyrido[4,3-j][1]azacyclododecine-1,14(2H,9H)-dione hydrochloride], in assay [1], the half-maximal inhibitory concentration (IC50) amounted to 501 nM. Turning to `CCN(c1cc(Cl)cc2c1C/C=C/CCc1cc(C)[nH]c(=O)c1CNC2=O)C1CCOCC1` [Example 17, (E)-12-chloro-10-(ethyl(tetrahydro-2H-pyran-4-yl)amino)-3-methyl-5,6,15,16-tetrahydrobenzo[c]pyrido[4,3-j][1]azacyclododecine-1,14(2H,9H)-dione], the IC50 in assay [1] was found to be 32 nM; in assay [2], 126 nM.

For `Cc1cc2c(c(=O)[nH]1)CNC(=O)c1cc(Cl)cc(OC(C)C)c1C/C=C/CC2` [Example 18, (E)-12-chloro-10-isopropoxy-3-methyl-5,6,15,16-tetrahydrobenzo[c]pyrido[4,3-j][1]azacyclododecine-1,14(2H,9H)-dione], the IC50 was 100 nM in assay [1] and 316 nM in assay [2].

Take `CCN(c1cccc2c1C/C=C\CC(C)c1cc(C)[nH]c(=O)c1CNC2=O)C1CCOCC1` (centres unmarked) [Example 22, (Z)-10-(ethyl(tetrahydro-2H-pyran-4-yl)amino)-3,5-dimethyl-5,6,15,16-tetrahydrobenzo[c]pyrido[4,3-j][1]azacyclododecine-1,14(2H,9H)-dione]: the half-maximal inhibitory concentration (IC50) in assay [1] amounted to 6310 nM.

For the compound `CCN(c1cccc2c1C/C=C/CC(C)c1cc(C)[nH]c(=O)c1CNC2=O)C1CCOCC1` (centres unmarked) [Example 23, (E)-10-(ethyl(tetrahydro-2H-pyran-4-yl)amino)-3,5-dimethyl-5,6,15,16-tetrahydrobenzo[c]pyrido[4,3-j][1]azacyclododecine-1,14(2H,9H)-dione], the IC50 in assay [1] came out at 126 nM. Still for that read-out and setting: for `CCN(c1cccc2c1CCCCC(C)c1cc(C)[nH]c(=O)c1CNC2=O)C1CCOCC1` (centres unmarked) [Example 24, 10-(ethyl(tetrahydro-2H-pyran-4-yl)amino)-3,5-dimethyl-6,7,8,9,15,16-hexahydrobenzo[c]pyrido[4,3-j][1]azacyclododecine-1,14(2H,5H)-dione] the value was 631 nM. Regarding `CCN(c1cccc2c1C/C=C/C(CO)Cc1cc(C)[nH]c(=O)c1CNC2=O)C1CCOCC1` (centres unmarked) [Example 25, (E)-10-(ethyl(tetrahydro-2H-pyran-4-yl)amino)-6-(hydroxymethyl)-3-methyl-5,6,15,16-tetrahydrobenzo[c]pyrido[4,3-j][1]azacyclododecine-1,14(2H,9H)-dione], the IC50 in assay [1] was determined as 158 nM. Still for that read-out and setting: the value for `CCN(c1cccc2c1C/C=C\C(CO)Cc1cc(C)[nH]c(=O)c1CNC2=O)C1CCOCC1` (centres unmarked) [Example 26, (Z)-10-(ethyl(tetrahydro-2H-pyran-4-yl)amino)-6-(hydroxymethyl)-3-methyl-5,6,15,16-tetrahydrobenzo[c]pyrido[4,3-j][1]azacyclododecine-1,14(2H,9H)-dione] was 12600 nM. Still for that read-out and setting: for `CCN(c1cccc2c1CCCC(CO)Cc1cc(C)[nH]c(=O)c1CNC2=O)C1CCOCC1` (centres unmarked) [Example 27, 10-(ethyl(tetrahydro-2H-pyran-4-yl)amino)-6-(hydroxymethyl)-3-methyl-6,7,8,9,15,16-hexahydrobenzo[c]pyrido[4,3-j][1]azacyclododecine-1,14(2H,5H)-dione] the value was 316 nM.

With `CCN(c1cccc2c1CCCC(O)CCc1cc(C)[nH]c(=O)c1CNC2=O)C1CCOCC1` (centres unmarked) [Example 28, 11-(ethyl(tetrahydro-2H-pyran-4-yl)amino)-7-hydroxy-3-methyl-5,6,7,8,9,10,16,17-octahydro-1H-benzo[c]pyrido[4,3-k][1]azacyclotridecine-1,15(2H)-dione], in assay [1], the half-inhibitory concentration (IC50) worked out at 631 nM. The same measure, in the same setting: for `CCN(c1cccc2c1C/C=C/CCc1cc(C)[nH]c(=O)c1CN(CCO)C2=O)C1CCOCC1` [Example 29, (E)-10-(ethyl(tetrahydro-2H-pyran-4-yl)amino)-15-(2-hydroxyethyl)-3-methyl-5,6,15,16-tetrahydrobenzo[c]pyrido[4,3-j][1]azacyclododecine-1,14(2H,9H)-dione] the value was 1260 nM.

In general, IC50 refers to the concentration that gives 50% inhibition.
